# From US20250304587A1, “WEE1 INHIBITOR, PREPARATION THEREFOR AND USE THEREOF” (JIANGSU TASLY DIYI PHARMACEUTICAL CO., LTD., priority 2022, published 2025)
# Experiments:
# HT-29 cells = assay: Cell Titer-Glo anti-proliferation, HT-29 cells; type: cell-based, human; settings: 3 days, read-out: Anti-proliferative activity HT-29 (IC50 class)
# Experimental: (§1) A. Evaluation of the Anti-Proliferative Effect of Compounds on BxPC3, HT-29 and OVCAR-3 Cells by the Cell Titer-Glo Method
# (§2) Compound solutions of different concentration gradients were prepared. […] The cell growth group without compound was used as a positive control (maximum signal control) and the medium was used as a negative control (minimum signal control), while ensuring that the final level of DMSO in each reaction well was 0.2%. After removing the medium from the 384-well plate, 25 μl of the configured compound at different concentrations was transferred into the well plate and the compound and cells were incubated in the cell incubator at 37° C. with 5% CO2 for 3 days.
# (§3) The 384-well plates were removed from the cell incubator and allowed to equilibrate for 1 h to room temperature. 25 μl of Cell Titer-Glo assay was added to each well, lysed on a shaker for 2 min and then read out (Luminescence) using a BMG PHERAStar after 10 min incubation. Calculate the inhibition rate from the luminescence signal.
# (§4) to calculate the rate of inhibition of the cells by different concentrations of the compounds. The IC50 of the compound on cell activity inhibition was calculated by fitting a log(inhibitor) vs. response-Variable slope model to GraphPad Prism 6. The fitted equation was: Y=Bottom+(Top-Bottom)/(1+10^((Log IC50−X)*HillSlope)), where Y represents the rate of inhibition and X represents the concentration of the known compound after Log.
# BxPC3 cells = assay: Cell Titer-Glo anti-proliferation, BxPC3 cells; type: cell-based, human; settings: 3 days, read-out: Anti-proliferative activity BxPC3 (IC50 class)
# Experimental: as §1, §2, §3, §4
# OVCAR-3 cells = assay: Cell Titer-Glo anti-proliferation, OVCAR-3 cells; type: cell-based; settings: 3 days, read-out: Anti-proliferative activity OVCAR-3 (IC50 class)
# Experimental: as §1, §2, §3, §4
Compound,IC50 (HT-29 cells),IC50 (BxPC3 cells),IC50 (OVCAR-3 cells)
C=CCn1c(=O)c2cnc(Nc3ccc(N4CCOCC4)cc3)nc2n1-c1ccc2c(n1)C(O)(CC)C1(CC1)C2 (racemic) [Compound 24],1 to 2 µM,1 to 2 µM,1 to 2 µM
C=CCn1c(=O)c2cnc(Nc3ccc(N4CC5CC(C4)N5CCF)cc3)nc2n1-c1ccc2c(n1)C(C)(O)C1(CC2)CC1 (stereo not drawn) [Compound 59b],0.1 to 1 µM,1 to 2 µM,1 to 2 µM
"C=CCn1c(=O)c2cnc(Nc3ccc(N4CCC(N(C)C)CC4)c(C)c3)nc2n1-c1ccc2c(n1)[C@@](C)(O)C1(CC1)C2 (single isomer, unassigned) [Compound 42b]",0.1 to 1 µM,0.1 to 1 µM,0.1 to 1 µM
"C=CCn1c(=O)c2cnc(Nc3ccc(N4CCC(N(C)C)C(F)C4)cc3)nc2n1-c1ccc2c(n1)C(C)(O)C1(CC1)C2 (single isomer, unassigned) [Compound 20a]",1 to 2 µM,1 to 2 µM,1 to 2 µM
C=CCn1c(=O)c2cnc(Nc3ccc(N4CCC5(CCN(C)CC5)CC4)cc3)nc2n1-c1ccc2c(n1)[C@@H](O)C1(CC2)CC1 [Compound 38a],0.1 to 1 µM,1 to 2 µM,1 to 2 µM
"C=CCn1c(=O)c2cnc(Nc3ccc(N4CC5CN(C)CC5C4)cc3)nc2n1-c1ccc2c(n1)C(C)(O)C1(CC2)CC1 (single isomer, unassigned) [Compound 43a]",0.1 to 1 µM,0.1 to 1 µM,0.1 to 1 µM
"C=CCn1c(=O)c2cnc(Nc3ccc(N4CCC(N(C)C)CC4)c(C)c3)nc2n1-c1ccc2c(n1)[C@](C)(O)C1(CC1)C2 (single isomer, unassigned) [Compound 42a]",0.1 to 1 µM,0.1 to 1 µM,0.1 to 1 µM
C=CCn1c(=O)c2cnc(Nc3ccc(N4CCC(N(C)C)CC4)cc3)nc2n1-c1ccc2c(n1)C(O)C1(CC2)CC1 (stereo not drawn) [Compound 66b],0.1 to 1 µM,0.1 to 1 µM,1 to 2 µM
C=CCn1c(=O)c2cnc(Nc3ccc(N4CCC(N(C)C)CC4)cc3)nc2n1-c1ccc2c(n1)C(C)(O)C1(CC2)CC1 (stereo not drawn) [Compound 65b],0.1 to 1 µM,0.1 to 1 µM,0.1 to 1 µM
"C=CCn1c(=O)c2cnc(Nc3ccc(N4CCC(N(C)C)CC4)cc3)nc2n1-c1ccc2c(n1)C(O)C1(CC2)CC1 (single isomer, unassigned) [Compound 66a]",1 to 2 µM,2 to 5 µM,2 to 5 µM
"C=CCn1c(=O)c2cnc(Nc3ccc(N4CCC5(CCN(C)CC5)CC4)c(F)c3)nc2n1-c1ccc2c(n1)C(O)C1(CC2)CC1 (single isomer, unassigned) [Compound 62a]",0.1 to 1 µM,1 to 2 µM,1 to 2 µM
C=CCn1c(=O)c2cnc(Nc3ccc(N4CCN(C)CC4)c(F)c3)nc2n1-c1ccc2c(n1)C(O)(CC)C1(CC1)C2 (stereo not drawn) [Compound 33],1 to 2 µM,2 to 5 µM,2 to 5 µM
C=CCn1c(=O)c2cnc(Nc3ccc(N4CCC5(CCN(C)CC5)CC4)cc3)nc2n1-c1ccc2c(n1)C(O)(CC)C1(CC1)C2 (racemic) [Compound 27],0.1 to 1 µM,0.1 to 1 µM,0.1 to 1 µM
C=CCn1c(=O)c2cnc(Nc3ccc(N4CCN(C)CC4)cc3)nc2n1-c1ccc2c(n1)C(O)(CC)C1(CC1)C2 (racemic) [Compound 18],0.1 to 1 µM,2 to 5 µM,2 to 5 µM
C=CCn1c(=O)c2cnc(Nc3ccc(N4CCC(N(C)C)CC4)c(C)c3)nc2n1-c1ccc2c(n1)C(C)(O)C1(CC2)CC1 (stereo not drawn) [Compound 52b],0.1 to 1 µM,0.1 to 1 µM,0.1 to 1 µM
C=CCn1c(=O)c2cnc(Nc3ccc(N4CCC5(CCN(C)CC5)CC4)cc3)nc2n1-c1ccc2c(n1)C(O)(CC)C1(CC2)CC1 (stereo not drawn) [Compound 69b],1 to 2 µM,1 to 2 µM,1 to 2 µM
"C=CCn1c(=O)c2cnc(Nc3ccc(N4CCC5(CCN(C)CC5)CC4)c(C)c3)nc2n1-c1ccc2c(n1)C(O)C1(CC2)CC1 (single isomer, unassigned) [Compound 61a]",0.1 to 1 µM,0.1 to 1 µM,0.1 to 1 µM
C=CCn1c(=O)c2cnc(Nc3ccc(N4CCC(N5CCN(C)CC5)C(F)C4)cc3)nc2n1-c1ccc2c(n1)C(C)(O)C1(CC1)C2 (mixture of isomers) [Compound 14],0.1 to 1 µM,1 to 2 µM,0.1 to 1 µM
C=CCn1c(=O)c2cnc(Nc3ccc(N4CCN(C)CC4)c(CO)c3)nc2n1-c1ccc2c(n1)C(C)(O)C1(CC1)C2 (racemic) [Compound 19],2 to 5 µM,2 to 5 µM,2 to 5 µM
